Results published in the supplement of paper PMC11451515.

Tested on: NOMO1
Test: cell viability relative to DMSO control; higher = less cytotoxic
Conditions: 48 h
Summary of the method: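 Library compounds in DMSO were pin-dosed in an 11-point threefold series (47 μM to 0.79 nM) onto leukemia cells in 1536-well plates (5 μl). Plates held 500 cells/well of NOMO1 or SEM or 1000 cells/well of P12-Ichikawa, each adapted for at least four passages in each medium. Luminescence was read with CellTiter-Glo One after 48 h at 37°C. Viability means the per-plate percentage relative to DMSO wells, using cell-free wells as background.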

[1] = HPLM + 10% dialyzed FBS, 0.000781 µM
[2] = HPLM + 10% dialyzed FBS, 0.00234 µM
[3] = HPLM + 10% dialyzed FBS, 0.00702 µM
[4] = HPLM + 10% dialyzed FBS, 0.0211 µM
[5] = HPLM + 10% dialyzed FBS, 0.0632 µM
[6] = HPLM + 10% dialyzed FBS, 0.19 µM
[7] = HPLM + 10% dialyzed FBS, 0.569 µM
[8] = HPLM + 10% dialyzed FBS, 1.71 µM
[9] = HPLM + 10% dialyzed FBS, 5.12 µM
[10] = HPLM + 10% dialyzed FBS, 15.4 µM
[11] = HPLM + 10% dialyzed FBS, 46.1 µM
[12] = RPMI 5 mM glucose + 10% FBS, 0.000781 µM
[13] = RPMI 5 mM glucose + 10% FBS, 0.00234 µM
[14] = RPMI 5 mM glucose + 10% FBS, 0.00702 µM
[15] = RPMI 5 mM glucose + 10% FBS, 0.0211 µM
[16] = RPMI 5 mM glucose + 10% FBS, 0.0632 µM
[17] = RPMI 5 mM glucose + 10% FBS, 0.19 µM
[18] = RPMI 5 mM glucose + 10% FBS, 0.569 µM
[19] = RPMI 5 mM glucose + 10% FBS, 1.71 µM
[20] = RPMI 5 mM glucose + 10% FBS, 5.12 µM
[21] = RPMI 5 mM glucose + 10% FBS, 15.4 µM
[22] = RPMI 5 mM glucose + 10% FBS, 46.1 µM
[23] = RPMI 5 mM glucose + 10% dialyzed FBS, 0.000781 µM
[24] = RPMI 5 mM glucose + 10% dialyzed FBS, 0.00234 µM
[25] = RPMI 5 mM glucose + 10% dialyzed FBS, 0.00702 µM
[26] = RPMI 5 mM glucose + 10% dialyzed FBS, 0.0211 µM
[27] = RPMI 5 mM glucose + 10% dialyzed FBS, 0.0632 µM
[28] = RPMI 5 mM glucose + 10% dialyzed FBS, 0.19 µM
[29] = RPMI 5 mM glucose + 10% dialyzed FBS, 0.569 µM
[30] = RPMI 5 mM glucose + 10% dialyzed FBS, 1.71 µM
[31] = RPMI 5 mM glucose + 10% dialyzed FBS, 5.12 µM
[32] = RPMI 5 mM glucose + 10% dialyzed FBS, 15.4 µM
[33] = RPMI 5 mM glucose + 10% dialyzed FBS, 46.1 µM

Compound	cell viability [1]	cell viability [2]	cell viability [3]	cell viability [4]	cell viability [5]	cell viability [6]	cell viability [7]	cell viability [8]	cell viability [9]	cell viability [10]	cell viability [11]	cell viability [12]	cell viability [13]	cell viability [14]	cell viability [15]	cell viability [16]	cell viability [17]	cell viability [18]	cell viability [19]	cell viability [20]	cell viability [21]	cell viability [22]	cell viability [23]	cell viability [24]	cell viability [25]	cell viability [26]	cell viability [27]	cell viability [28]	cell viability [29]	cell viability [30]	cell viability [31]	cell viability [32]	cell viability [33]
Cc1cccc(-c2[nH]c(C(C)(C)C)nc2-c2ccc3nccnc3c2)n1	113%	135%	110%	117%	111%	133%	123%	128%	112%	114%	47%	133%	121%	117%	124%	123%	98.2%	124%	106%	106%	114%	96.6%	119%	112%	122%	108%	113%	119%	120%	118%	112%	98.2%	51.4%
CC(C)(Sc1cc(C(C)(C)C)c(O)c(C(C)(C)C)c1)Sc1cc(C(C)(C)C)c(O)c(C(C)(C)C)c1	88.5%	92.3%	85.6%	105%	108%	90.4%	96.2%	94.3%	79.1%	103%	91.6%	84.4%	92.5%	86.2%	91.3%	86.4%	98.4%	92.8%	84.8%	92.7%	93%	84.8%	79.7%	88.3%	94.6%	83.7%	98.9%	105%	95.5%	94.5%	81.4%	90.2%	94%
CC1=CC/2=C(C=C1C)N(C[C@@H](O)[C@@H](O)[C@@H](O)CO)C/3=N/C(=O)NC(=O)C3=N2	130%	119%	119%	115%	124%	135%	139%	125%	89.1%	127%	46.2%	108%	108%	116%	118%	116%	117%	110%	120%	108%	111%	98.5%	113%	126%	113%	123%	126%	123%	128%	123%	108%	107%	90.1%
COc1cc2c(cc1OC)CN(CCc1ccc(NC(=O)c3cccc4c(=O)c5cccc(OC)c5[nH]c34)cc1)CC2	97.2%	96.8%	114%	121%	122%	121%	109%	45%	29.8%	16.8%	11.3%	123%	112%	127%	118%	119%	116%	122%	112%	62.8%	23.7%	14.1%	112%	114%	127%	113%	130%	130%	133%	133%	52.3%	35.2%	24.2%
C[S+](=O)([O-])N1CCN(Cc2cc3nc(-c4cccc5[nH]ncc45)nc(N4CCOCC4)c3s2)CC1	–	–	–	–	–	–	–	–	–	–	–	113%	133%	116%	132%	128%	133%	117%	107%	80.3%	80.6%	65.5%	–	–	–	–	–	–	–	–	–	–	–
C=C1CCC2[C@](C)(CO)C(O)CC[C@]2(C)C1C/C=C1/C(=O)OCC1O (stereo partly specified)	–	–	–	–	–	–	–	–	–	–	–	111%	109%	115%	101%	114%	113%	99.3%	105%	97.5%	104%	98.4%	121%	104%	114%	110%	118%	107%	105%	109%	95.5%	101%	96.9%
CCC(=O)NC[C@H](Cc1ccc(OCCc2nc(-c3ccccc3)oc2C)cc1)N/C(C)=C\C(=O)c1ccc(C(F)(F)F)cc1	98.9%	104%	101%	122%	114%	130%	96.3%	104%	103%	54.3%	27.1%	102%	114%	109%	99.6%	106%	112%	101%	109%	113%	62.4%	19.2%	97.9%	113%	102%	115%	106%	117%	107%	107%	90.8%	105%	43.7%
Clc1ccc(CCC(Cn2ccnc2)Sc2c(Cl)cccc2Cl)cc1 (stereo unspecified)	87.3%	85.2%	98%	103%	107%	90.8%	98.5%	87%	93.9%	93.6%	90.4%	77.8%	80.1%	86.7%	83.4%	89.2%	88.2%	86.9%	85.5%	85.5%	81.7%	79.8%	87.5%	83.4%	94.1%	89.5%	95.2%	94.7%	90.1%	96.2%	83.8%	102%	70.7%
